Source: US8642611B2, “Alkynylpyrimidines and salts thereof, pharmaceutical compositions comprising same, methods of preparing same and uses of same” (Bayer Intellectual Property GmbH, priority 2007, dated 2014)

Tests used:
human KDR = molecular target: T1, human KDR (Homo sapiens, UniProt P35968); assay: VEGFR2 Kinase (KDR) HTRF Assay; assay type: biochemical; settings: GST-tagged kinase domain of human KDR, 10 μM ATP; read-out: KDR activity (assay 4)
T1 construct: GST-tagged recombinant kinase domain of the human KDR; GST; made in house; host or cells: SF-9 insect cells
T1 sequence (P35968 834-1162 limits assumed): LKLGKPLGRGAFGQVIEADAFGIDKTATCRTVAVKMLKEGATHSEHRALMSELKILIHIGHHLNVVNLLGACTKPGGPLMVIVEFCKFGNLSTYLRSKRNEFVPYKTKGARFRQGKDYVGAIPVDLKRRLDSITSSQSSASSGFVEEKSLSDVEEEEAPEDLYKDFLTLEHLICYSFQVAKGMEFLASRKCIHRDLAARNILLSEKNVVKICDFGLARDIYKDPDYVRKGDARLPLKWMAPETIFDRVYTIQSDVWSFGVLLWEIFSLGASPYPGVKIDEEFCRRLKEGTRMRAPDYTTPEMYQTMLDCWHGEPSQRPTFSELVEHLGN
From the text: Assay 4: VEGFR2 Kinase (KDR) HTRF Assay
KDR inhibitory activity of compounds of the present invention was quantified employing the KDR HTRF assay as described in the following paragraphs.
GST-tagged recombinant kinase domain of the human KDR expressed in SF-9 cells was used as kinase. As substrate for the kinase reaction the biotinylated peptide biotin-Ahx-DFGLARDMYDKEYYSVG (C-terminus in acid form) was used which can be purchased e.g. form the company Biosynthan GmbH (Berlin-Buch, Germany). KDR was incubated for 45 min at 22° C. in the presence of different concentrations of test compounds in 5 μl assay buffer [50 mM Hepes/NaOH pH 7.0, 25 mM MgCl2, 5 mM MnCl2, 1.0 mM dithiothreitol, 0.1 mM sodium ortho-vanadate, 10 μM adenosine-tri-phosphate (ATP), 0.5 μM substrate, 0.001% (v/v) Nonidet-P40 (Sigma), 1% (v/v) dimethylsulfoxide]. The concentration of KDR was adjusted depending of the activity of the enzyme lot and was chosen appropriate to have the assay in the linear range. The reaction was stopped by the addition of 5 μL of a solution of HTRF detection reagents (0.1 μM streptavidine-XLent and 2 nM PT66-Eu-Chelate, an europium-chelate Labelled anti-phospho-tyrosine antibody from Perkin Elmer) in an aqueous EDTA-solution (125 mM EDTA, 0.2% (w/v) bovine serum albumin in 50 mM HEPES/NaOH pH 7.0).
(§1) The resulting mixture was incubated 1 h at 22° C. to allow the binding of the biotinylated phosphorylated peptide to the streptavidine-XLent and the PT66-Eu-Chelate. Subsequently the amount of phosphorylated substrate was evaluated by measurement of the resonance energy transfer from the PT66-Eu-Chelate to the streptavidine-XLent. Therefore, the fluorescence emissions at 620 nm and 665 nm after excitation at 350 nm was measured in a HTRF reader, e.g. a Rubystar (BMG Labtechnologies, Offenburg, Germany) or a ViewLux (Perkin-Elmer). The ratio of the emissions at 665 nm and at […] was taken as the measure for the amount of phosphorylated substrate. The data were normalised (enzyme reaction without inhibitor=0% inhibition, all other assay components but no enzyme=100% inhibition) and IC50 values were calculated by a 4 parameter fit using an inhouse software.

Tie2 = Tie2 (Homo sapiens, UniProt Q02763); assay: Tie-2-Kinase HTRF-Assay without kinase preactivation; assay type: biochemical; parameters: fusion protein of GST and the intracellular domains of Tie-2; GST; made in house; host or cells: insect cells (Hi-5); settings: GST-Tie-2 intracellular domains, 10 μM ATP, read-out: Tie2 activity (assay 2)
Chain of Tie2 (Q02763 770-1124 limits assumed): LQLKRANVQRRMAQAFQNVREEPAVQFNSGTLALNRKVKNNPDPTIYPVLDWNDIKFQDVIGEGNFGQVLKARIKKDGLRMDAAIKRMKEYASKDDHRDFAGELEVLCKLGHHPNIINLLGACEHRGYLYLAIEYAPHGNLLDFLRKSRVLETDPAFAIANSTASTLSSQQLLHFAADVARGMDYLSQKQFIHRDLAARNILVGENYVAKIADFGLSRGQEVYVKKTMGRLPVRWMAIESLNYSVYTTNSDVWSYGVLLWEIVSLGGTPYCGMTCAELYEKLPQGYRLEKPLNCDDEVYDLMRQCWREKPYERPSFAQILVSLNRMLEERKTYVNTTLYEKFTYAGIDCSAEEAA
From the text: Tie2-inhibitory activity of compounds of the present invention was quantified employing two Tie2 HTRF assay as described in the following paragraphs.
A recombinant fusion protein of GST and the intracellular domains of Tie-2, expressed in insect cells (Hi-5) and purified by Glutathion-Sepharose affinity chromatography was used as kinase. Alternatively, commercially available GST-Tie2-fusion protein (Upstate Biotechnology, Dundee, Scotland) can be used As substrate for the kinase reaction the biotinylated peptide biotin-Ahx-EPKDDAYPLYSDFG (C-terminus in amid form) was used which can be purchased e.g. from the company Biosynthan GmbH (Berlin-Buch, Germany). Detection of phosphorylated product is achieved specifically by a trimeric detection complex consisting of the phosphorylated substrate, streptavidin-XLent (SA-XLent) which binds to biotin, and Europium Cryptate-labeled anti-phosphotyrosine antibody PT66 which binds to phosphorylated tyrosine.
Tie-2 (3.5 ng/measurement point) was incubated for 60 min at 22° C. in the presence of 10 μM adenosine-tri-phosphate (ATP) and 1 μM substrate peptide (biotin-Ahx-EPKDDAYPLYSDFG-NH2) with different concentrations of test compounds (0 μM and concentrations in the range 0.001-20 μM) in 5 μl assay buffer [50 mM Hepes/NaOH pH 7, 10 mM MgCl2, 0.5 mM MnCl2, 1.0 mM dithiothreitol, 0.01% NP40, protease inhibitor mixture (“Complete w/o EDTA” from Roche, 1 tablet per 2.5 ml), 1% (v/v) dimethylsulfoxide]. The reaction was stopped by the addition of 5 μl of an aqueous buffer (25 mM Hepes/NaOH pH 7.5, 0.28% (w/v) bovine serum albumin) containing EDTA (90 mM) and the HTRF (Homogeneous Time Resolved Fluorescence) detection reagents streptavidine-XLent (0.2 μM, from Cis Biointernational, Marcoule, France) and PT66-Eu-Chelate (0.3 ng/μl; a europium-chelate labelled anti-phospho-tyrosine antibody from Perkin Elmer).
as §1, with “substrate peptide” for “substrate”, “Viewlux” for “ViewLux”, “substrate peptide.” for “substrate.”

What does the source list for COc1ccc(C#Cc2cnc(Nc3ccc(S(C)(=N)=O)cc3)nc2N[C@H](C)CO)cc1 (mixture of isomers) [Example 1.1, (RS)—S-(4-[4-((R)-2-Hydroxy-1-methyl-ethylamino)-5-(4-methoxy-phenylethynyl)-pyrimidin-2-ylamino]-phenyl)-S-methylsulfoximide]?
IC50 (human KDR): < 500 nM; IC50 (Tie2): < 500 nM

What does the source list for C[C@H](CO)Nc1nc(Nc2ccc(S(C)(=N)=O)cc2)ncc1C#Cc1ccccc1 (mixture of isomers) [Example 1.2, (RS)-S-(4-[4-((R)-2-Hydroxy-1-methyl-ethylamino)-5-(phenylethynyl)-pyrimidin-2-ylamino]-phenyl)-S-methylsulfoximide]?
IC50 (human KDR): < 500 nM; IC50 (Tie2): < 500 nM

For CCc1ccc(C#Cc2cnc(Nc3ccc(S(C)(=N)=O)cc3)nc2N[C@H](C)CO)cc1 (mixture of isomers) [Example 1.8, (RS)-S-(4-[5-(4-Ethyl-phenylethynyl)-4-((R)-2-hydroxy-1-methyl-ethylamino)-pyrimidin-2-ylamino]-phenyl)-S-methylsulfoximide], which IC50 (human KDR) is on record?
Its IC50 is < 500 nM.

And the IC50 (Tie2)?
Its IC50 is < 500 nM.

C[C@H](CO)Nc1nc(Nc2ccc(S(C)(=N)=O)cc2)ncc1C#Cc1ccc(F)cc1 (mixture of isomers) [Example 1.9, (RS)-S-(4-[5-(4-Fluoro-phenyl-ethynyl)-4-((R)-2-hydroxy-1-methyl-ethylamino)-pyrimidin-2-ylamino]-phenyl)-S-methylsulfoximide] was tested. Which IC50 (human KDR) did it give?
The IC50 was < 500 nM.

And the IC50 (Tie2)?
Its IC50 is < 500 nM.

With Cc1cc(C#Cc2cnc(Nc3ccc(S(C)(=N)=O)cc3)nc2N[C@H](C)CO)ccc1F (mixture of isomers) [Example 1.13, (RS)-S-(4-[5-(4-Fluoro-3-methyl-phenyl-ethynyl)-4-((R)-2-hydroxy-1-methyl-ethylamino)-pyrimidin-2-ylamino]-phenyl)-S-methylsulfoximide] as the molecule, how does the IC50 (human KDR) read?
The IC50 was < 500 nM.

What about the IC50 (Tie2) of the same molecule?
Its IC50 is < 500 nM.

With CC(C)NC(=O)N=S(C)(=O)c1cccc(Nc2ncc(C#Cc3cccc(O)c3)c(N[C@H](C)CO)n2)c1 (mixture of isomers) [Example 1.15, (RS)-S-(3-[4-((R)-2-Hydroxy-1-methyl-ethylamino)-5-(3-hydroxy-phenylethynyl)-pyrimidin-2-ylamino]-phenyl)-N-(isopropylcarbamoyl)-S-methylsulfoximide] as the molecule, how does the IC50 (human KDR) read?
Its IC50 is < 500 nM.

And the IC50 (Tie2)?
Its IC50 is < 500 nM.

For COc1ccc(C#Cc2cnc(Nc3cccc(S(C)(=N)=O)c3)nc2N[C@H](C)CO)cc1 (mixture of isomers) [Example 1.17, (RS)-S-(3-[4-((R)-2-Hydroxy-1-methyl-ethylamino)-5-(4-methoxy-phenylethynyl)-pyrimidin-2-ylamino]-phenyl)-S-methylsulfoximide], which IC50 (human KDR) is on record?
The IC50 was < 500 nM.

What about the IC50 (Tie2) of the same molecule?
Its IC50 is < 500 nM.

C[C@H](CO)Nc1nc(Nc2cccc(S(C)(=N)=O)c2)ncc1C#Cc1cccc(O)c1 (mixture of isomers) [Example 1.18, (RS)-S-(3-[4-((R)-2-Hydroxy-1-methyl-ethylamino)-5-(3-hydroxy-phenylethynyl)-pyrimidin-2-ylamino]-phenyl)-S-methylsulfoximide] was tested. Which IC50 (human KDR) did it give?
Its IC50 is < 500 nM.

What about the IC50 (Tie2) of the same molecule?
The IC50 was < 500 nM.

What does the source list for Cc1ccccc1C#Cc1cnc(Nc2cccc(S(C)(=N)=O)c2)nc1N[C@H](C)CO (mixture of isomers) [Example 1.19, (RS)-S-(3-[4-((R)-2-Hydroxy-1-methyl-ethylamino)-5-(2-methyl-phenylethynyl)-pyrimidin-2-ylamino]-phenyl)-S-methylsulfoximide]?
IC50 (human KDR): < 500 nM; IC50 (Tie2): < 500 nM

With Cc1cc(C#Cc2cnc(Nc3cccc(S(C)(=N)=O)c3)nc2N[C@H](C)CO)ccc1F (mixture of isomers) [Example 1.20, (RS)-S-(3-[5-(4-Fluoro-3-methyl-phenyl-ethynyl)-4-((R)-2-hydroxy-1-methyl-ethylamino)-pyrimidin-2-ylamino]-phenyl)-S-methylsulfoximide] as the molecule, how does the IC50 (human KDR) read?
Its IC50 is < 500 nM.

What about the IC50 (Tie2) of the same molecule?
The IC50 was < 500 nM.

Which results are given for Cc1ccccc1C#Cc1cnc(Nc2ccc(S(C)(=N)=O)cc2)nc1N[C@H](C)CO (mixture of isomers) [Example 1.3]?
IC50 (human KDR): < 500 nM; IC50 (Tie2): < 500 nM

Cc1ccc(C#Cc2cnc(Nc3ccc(S(C)(=N)=O)cc3)nc2N[C@H](C)CO)cc1 (mixture of isomers) [Example 1.5] was tested. Which IC50 (human KDR) did it give?
Its IC50 is < 500 nM.

What about the IC50 (Tie2) of the same molecule?
The IC50 was < 500 nM.

Which IC50 (human KDR) does the source give for CCNc1nc(Nc2ccc(S(C)(=N)=O)cc2)ncc1C#Cc1ccc(F)c(C)c1 (racemic) [Example 1.24, (RS)-S-(4-[4-ethylamino-5-(4-fluoro-3-methyl-phenyl-ethynyl)-pyrimidin-2-ylamino]-phenyl)-S-methylsulfoximide] here?
Its IC50 is < 500 nM.

And the IC50 (Tie2)?
The IC50 was < 500 nM.

What does the source list for CCNc1nc(Nc2ccc(S(C)(=N)=O)cc2)ncc1C#Cc1ccc(OC)cc1 (racemic) [Example 1.26, (RS)-S-(4-[4-ethylamino-5-(4-methoxy-phenyl-ethynyl)-pyrimidin-2-ylamino]-phenyl)-S-methylsulfoximide]?
IC50 (human KDR): < 500 nM; IC50 (Tie2): < 500 nM

How did the IC50 (human KDR) turn out when CCOC(=O)N=S(C)(=O)c1ccc(Nc2ncc(C#Cc3cccc(O)c3)c(N[C@H](C)CO)n2)cc1 (mixture of isomers) [Example 2.7] was run?
Its IC50 is < 500 nM.

And the IC50 (Tie2)?
The IC50 was < 500 nM.

With CS(=N)(=O)c1cccc(Nc2ncc(C#Cc3cccc(O)c3)cn2)c1 (racemic) [Example 4.2, (RS)—S-(3-[5-(3-hydroxy-phenylethynyl)-pyrimidin-2-ylamino]-phenyl)-S-methylsulfoximide] as the molecule, how does the IC50 (human KDR) read?
The IC50 was < 500 nM.

What about the IC50 (Tie2) of the same molecule?
The IC50 was < 500 nM.
